Like-named read-outs stand apart in the source and are kept apart here.
Legend:
[1] = test system: proinflammatory cytokines IFNα, IFNγ, TNFα, IL-6 and IL-12; experiment: Plasma cytokine induction after Compound 6 or resiquimod with staggered RSLAIL-2 in CT26 model; assay type: in vivo, Balb/c mice; conditions: for pro-inflammatory cytokine induction in blood, in words: 10 μg single intra/peritumoral dose; for time of peak level of IFN-γ / time of peak levels of IFNα, TNFα, IL-6 and IL-12: plasma, 10 μg intra/peritumoral
Protocol: The concentration of proinflammatory cytokines IFNα, IFNγ, TNFα, IL-6 and IL-12 was determined in plasma by multiplex protein measurement assay at indicated time points post dose.

hTLR7 = target: T1, hTLR7 (Homo sapiens, UniProt Q9NYK1); experiment: SEAP reporter gene assay in HEK293 cells stably transfected with human TLR receptor; assay type: cell-based; conditions: downstream hTLR7 and hTLR8
T1 construct: expressed in transfected cells; host or cells: HEK293
T1 sequence (Q9NYK1 27-1049): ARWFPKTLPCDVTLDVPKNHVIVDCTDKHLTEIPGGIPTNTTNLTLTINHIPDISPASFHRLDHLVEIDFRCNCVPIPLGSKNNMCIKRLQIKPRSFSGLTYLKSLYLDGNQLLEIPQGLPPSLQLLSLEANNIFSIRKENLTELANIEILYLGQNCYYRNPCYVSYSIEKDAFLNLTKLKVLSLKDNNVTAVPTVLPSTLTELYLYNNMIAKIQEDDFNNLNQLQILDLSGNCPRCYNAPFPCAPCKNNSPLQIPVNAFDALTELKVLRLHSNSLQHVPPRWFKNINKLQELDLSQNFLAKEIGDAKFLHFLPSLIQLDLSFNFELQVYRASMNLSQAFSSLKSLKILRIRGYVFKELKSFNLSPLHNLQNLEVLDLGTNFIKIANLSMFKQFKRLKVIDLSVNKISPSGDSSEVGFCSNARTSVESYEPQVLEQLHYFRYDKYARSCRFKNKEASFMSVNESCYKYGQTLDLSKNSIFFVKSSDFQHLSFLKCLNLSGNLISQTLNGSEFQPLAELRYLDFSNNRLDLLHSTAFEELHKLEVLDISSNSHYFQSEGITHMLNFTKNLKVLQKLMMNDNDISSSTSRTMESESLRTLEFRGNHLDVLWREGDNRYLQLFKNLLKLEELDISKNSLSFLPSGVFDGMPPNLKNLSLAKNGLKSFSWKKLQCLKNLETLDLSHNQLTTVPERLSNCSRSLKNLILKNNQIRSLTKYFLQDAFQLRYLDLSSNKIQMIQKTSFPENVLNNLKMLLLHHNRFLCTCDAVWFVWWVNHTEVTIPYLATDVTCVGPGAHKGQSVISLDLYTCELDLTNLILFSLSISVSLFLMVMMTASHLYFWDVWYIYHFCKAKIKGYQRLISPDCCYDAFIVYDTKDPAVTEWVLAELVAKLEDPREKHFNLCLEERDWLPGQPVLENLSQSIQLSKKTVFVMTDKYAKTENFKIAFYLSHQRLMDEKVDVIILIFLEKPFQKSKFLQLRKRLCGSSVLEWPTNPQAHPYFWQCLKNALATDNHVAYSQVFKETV
Excerpt: Parental cell lines (Null1 and Null1K, stably transfected with the SEAP reports but without hTLR receptor expression) were used as negative controls.

[2] = test system: bilateral CT26 subcutaneous tumors
TLR7/8 = experiment: TLR7/8-dependent cytokine production in plasma after single 10 μg intratumoral administration, CT26 tumor bearing mice; assay type: in vivo, Balb/c mice
Protocol: Hank's Balanced Salt Solution) was administered intratumorally to Balb/c mice bearing CT26 tumor. […] (Conjugate doses and concentrations are expressed based on TLR 7/8 agonist (e.g., resiquimod or other TLR 7/8 agonist) content, wherein the mass of the TLR 7/8 agonist is expressed independent of PEG mass). Plasma was collected at pre-determined time points for analysis of level of IFN-gamma, IL-2, IL-4, IL5, IL-6, IL-1 beta, IL-10, IL-12p70, KC/GRO, TNF-alpha, and IFN-alpha. For assessing IFN-gamma, IL-2, IL-4, IL5, IL-6, IL-1 beta, IL-10, IL-12p70, KC/GRO, and TNF alpha, an electrochemiluminescence assay was performed on duplicate samples using capture antibody precoated 96 well multispot plates from Meso Scale Discovery (MSD; Gaithersburg, Md., US). […] Plates were immediately read using SECTOR Imager 2400 and data was quantitated using Discovery Workbench software version 4.0 (MSD, Gaithersburg, Md., US). Mouse IFN alpha was measured with the Verikine mouse Interferon-Alpha ELISA kit (PBL, Piscataway, N.J., USA), according to the instructions of the manufacturer. After the addition of a stop solution, the absorbance at 450 nm was determined using BioTek μQuant microplate reader (Biotek; Winooski, Vt., USA). The ELISA data was quantitated using Biotek Gen5 software (Biotek; Winooski, Vt., USA). Data are represented as the mean of the fold-change of replicates.

TLR7 pathway = conditions: 2 hours and 6 hours following treatment with Compound 6
Protocol: Cytokine analysis (in CT26 tumor-bearing mice): Tumor and plasma samples were obtained at multiple time points following administration for cytokine analysis. RNA was isolated from treated tumors to assess induction of type I interferon- and NFκB-dependent gene expression. A panel of pro-inflammatory cytokines was measured from tumor tissue and plasma by multiplex protein measurement assay.

[3] = Plasma and tumor concentrations following single 10 μg (R848 equivalents) intratumoral administration to EMT6 tumor bearing mice; assay type: in vivo, Balb/c mice; set-up: key: +<10; 10≤++<100; 100≤+++<1,000; 1,000≤++++; BLQ is Below the Limit of Quantitation
Protocol: (§1) Studies were conducted to evaluate the single dose pharmacokinetics of R848 and Compound 6 in plasma and tumor tissue.
(§2) Plasma and tumor tissues were collected at pre-determined time points for analysis of R848 and Compound 6 using a qualified LC-MS/MS method.

[4] = Plasma and tumor concentrations following single 10 μg (R848 equivalents) intratumoral administration to CT26 tumor bearing mice; assay type: in vivo, Balb/c mice; set-up: key: +<10; 10≤++<100; 100≤+++<1,000; 1,000≤++++; BLQ is Below the Limit of Quantitation
Protocol: as §1, §2

[5] = Plasma and tumor concentrations following single 10 μg (R848 equivalents) intratumoral administration to EMT6 tumor bearing mice; assay type: in vivo, Balb/c mice; set-up: unit not given here
Protocol: as §1, §2

[6] = Plasma and tumor concentrations following single 10 μg (R848 equivalents) intratumoral administration to CT26 tumor bearing mice; assay type: in vivo, Balb/c mice; set-up: unit not given here
Protocol: as §1, §2

CT26 tumor cells = experiment: Effect of treatment in vivo on intratumoral immune cell types by flow cytometry, CT26 tumors; set-up: species or system Balb/c mice
Protocol: The other (contralateral) tumor was not dosed with R848.
Immune cell subtypes were measured by flow cytometry.

[7] = test system: subcutaneous B16F10 mouse melanoma tumors; experiment: Immune cells in tumor microenvironment by flow cytometry, B16F10 melanoma model; assay type: in vivo, mice; conditions: day 7; single dose of RSLAIL-2 or 5 doses of aldesleukin
STAT5 phosphorylation = STAT5 phosphorylation in lymphocytes by flow cytometry after administration in mice; assay type: in vivo
Excerpt: Conventional approaches, such as those involving radiolabeling a compound, administering it in vivo, and determining its clearance, can be used to determine whether a compound proposed to be a long-acting IL-2Rβ biased agonist is “long-acting”. For the purposes herein, the long acting nature of an IL-2Rβ biased agonist is typically determined using flow cytometry to measure STAT5 phosphorylation in lymphocytes at various time points after administration of the agonist to be evaluated in mice. As a reference, the signal is lost by around 24 hours with IL-2, but is sustained for a period greater than that for a long-acting IL-2Rβ-biased agonist.

[8] = 2 hours after single 10 μg intratumoral administration
[9] = 6 hours after single 10 μg intratumoral administration

Excerpt for EMT6 tumor cells: In vivo model: Mice used were ˜10 weeks old female Balb/c strain with 2 million EMT6 tumor cells implanted on each flank. Cells were allowed to mature into tumors for 7 days reaching a volume of 75-150 mm^3 volume.
Measurements: Tumor volumes were collected by caliper measurements 2-3 times per week and calculated using formula: L×W^2/2 where L is tumor length and W is tumor width.

4-arm-PEG20k-CM-glycine-N-R848 [Compound 6]
induction of cytokines in plasma, in words ([1]; 1 μg single intra/peritumoral dose): very modest induction of all cytokines in plasma | pro-inflammatory cytokine induction in blood, in words [1]: robust pro-inflammatory cytokine induction in blood | time of peak level of IFN-γ [1]: 6 h | time of peak levels of IFNα, TNFα, IL-6 and IL-12 [1]: 2 h | fold higher concentration for reporter activation compared to resiquimod (hTLR7): > 20 fold | CD8+ T cells in tumors ([2]; after combination treatment with RSLAIL-2 (0.8 mg/kg i.v. four days after Compound 6), day 7): selective Compound 6-dose dependent increase | relative fraction of regulatory T cells in tumors ([2]; after combination treatment with RSLAIL-2, day 7): decreased dramatically | CD8:Treg ratio in the blood ([2]; both treatment groups (10 μg or 0.1 μg) after RSLAIL-2): overall reduction | intratumoral neutrophils in treated tumors ([2]; one day after treatment, 10 μg dose): increase in intratumoral neutrophils | IFNa fold change (treated/vehicle) (TLR7/8; [8]): + (+<50) | IL6 fold change (treated/vehicle) (TLR7/8; [8]): ++ (50≤++<200) | IL12 fold change (treated/vehicle) (TLR7/8; [8]): + (+<50) | KC/GRO fold change (treated/vehicle) (TLR7/8; [8]): + (+<50) | TNFa fold change (treated/vehicle) (TLR7/8; [8]): + (+<50) | IFNg fold change (treated/vehicle) (TLR7/8; [9]): +++ (10≤+++<20) | IL10 fold change (treated/vehicle) (TLR7/8; [9]): + (+<5) | concentration of systemic cytokines compared with tumor (IL-6, KC/GRO, TNF-α, IL-1β, IL-5, IFN-α, IFN-γ, IL-2, IL-12p70) (TLR7 pathway): significantly less than that in the tumor | Survival Proportions (EMT6 tumor cells; day 0 after treatment start): ++++ (75%≤++++<100%) | Survival Proportions (EMT6 tumor cells; day 3 after treatment start): ++++ (75%≤++++<100%) | Survival Proportions (EMT6 tumor cells; day 8 after treatment start): ++++ (75%≤++++<100%) | Survival Proportions (EMT6 tumor cells; day 13 after treatment start): ++++ (75%≤++++<100%) | Survival Proportions (EMT6 tumor cells; day 15 after treatment start): ++++ (75%≤++++<100%) | Survival Proportions (EMT6 tumor cells; day 20 after treatment start): +++ (50%≤+++<75%) | Survival Proportions (EMT6 tumor cells; day 27 after treatment start): ++ (25%≤++<50%) | Survival Proportions (EMT6 tumor cells; day 34 after treatment start): + (0%≤+<25%) | Survival Proportions (EMT6 tumor cells; day 42 after treatment start): + (0%≤+<25%) | Survival Proportions (EMT6 tumor cells; day 48 after treatment start): + (0%≤+<25%) | Survival Proportions (EMT6 tumor cells; day 55 after treatment start): none | survival of the animals (EMT6 tumor cells; end of the study at day 55 after commencement of dosing): no surviving animals

CCOCc1nc2c(N)nc3ccccc3c2n1CC(C)(C)O [Compound R848, 1-(4-Amino-2-(ethoxymethyl)-1H-imidazo[4,5-c]quinolin-1-yl)-2-methylpropan-2-ol]
R848 plasma concentration ([3]; 24.00 hr post-dose): BLQ | R848 plasma concentration ([3]; 72.00 hr post-dose): BLQ | R848 plasma concentration ([3]; 96.00 hr post-dose): BLQ | R848 plasma concentration ([3]; 120.00 hr post-dose): BLQ | R848 plasma concentration ([3]; 144.00 hr post-dose): BLQ | pro-inflammatory cytokine induction in blood, in words [1]: robust pro-inflammatory cytokine induction in blood | time of peak level of IFN-γ [1]: 6 h | time of peak levels of IFNα, TNFα, IL-6 and IL-12 [1]: 2 h | R848 plasma concentration ([4]; 72.00 hr post-dose): BLQ | R848 plasma concentration ([4]; 96.00 hr post-dose): BLQ | R848 plasma concentration ([4]; 120.00 hr post-dose): BLQ | R848 plasma concentration ([4]; 144.00 hr post-dose): BLQ | R848 plasma concentration ([5]; 0.25 hr post-dose): +++ (100≤+++<1,000) | R848 tumor concentration ([5]; 0.25 hr post-dose): ++ (1,000≤++<10,000) | R848 plasma concentration ([5]; 2.00 hr post-dose): + (+<10) | R848 tumor concentration ([5]; 2.00 hr post-dose): + (+<1,000) | R848 plasma concentration ([5]; 6.00 hr post-dose): + (+<10) | R848 tumor concentration ([5]; 6.00 hr post-dose): + (+<1,000) | R848 tumor concentration ([5]; 24.00 hr post-dose): + (+<1,000) | R848 tumor concentration ([5]; 72.00 hr post-dose): + (+<1,000) | R848 tumor concentration ([5]; 96.00 hr post-dose): + (+<1,000) | R848 tumor concentration ([5]; 120.00 hr post-dose): + (+<1,000) | R848 tumor concentration ([5]; 144.00 hr post-dose): + (+<1,000) | R848 plasma concentration ([6]; 0.25 hr post-dose): ++ (10≤++<100) | R848 tumor concentration ([6]; 0.25 hr post-dose): ++ (1,000≤++<10,000) | R848 plasma concentration ([6]; 2.00 hr post-dose): + (+<10) | R848 tumor concentration ([6]; 2.00 hr post-dose): + (+<1,000) | R848 plasma concentration ([6]; 6.00 hr post-dose): + (+<10) | R848 tumor concentration ([6]; 6.00 hr post-dose): + (+<1,000) | R848 plasma concentration ([6]; 24.00 hr post-dose): + (+<10) | R848 tumor concentration ([6]; 24.00 hr post-dose): + (+<1,000) | R848 tumor concentration ([6]; 72.00 hr post-dose): + (+<1,000) | R848 tumor concentration ([6]; 96.00 hr post-dose): + (+<1,000) | R848 tumor concentration ([6]; 120.00 hr post-dose): + (+<1,000) | R848 tumor concentration ([6]; 144.00 hr post-dose): + (+<1,000) | CD8 T Cells (Percent of Vehicle) (CT26 tumor cells): 95% | CD11c+ CD8+ Dendritic Cells (Percent of Vehicle) (CT26 tumor cells): 135% | Macrophages (Percent of Vehicle) (CT26 tumor cells): 80% | Monocytes (Percent of Vehicle) (CT26 tumor cells): 160% | Neutrophils (Percent of Vehicle) (CT26 tumor cells): 500% | T Regulatory Cells (Percent of Vehicle) (CT26 tumor cells): 20%

aldesleukin: clinically available IL-2; recombinant IL-2 referred to as aldesleukin
ratio of CD8/Treg in the tumor [7]: 18 | time by which STAT5 phosphorylation signal is lost (STAT5 phosphorylation): around 24 hours

From patent US11744898B2, “Multi-arm polymer conjugates of TLR agonist compounds and related immunotherapeutic treatment methods” (Nektar Therapeutics, priority 2017, dated 2023)
